Laboratory results: patent US20220213070A1, “COMPOUNDS INHIBITING TDG ACTIVITY” (EPITAS BIOSCIENCES (SHANGHAI) CO., LTD., priority 2019, published 2022)

Columns and labels:
TDG [1] = target: T1, TDG (Homo sapiens, UniProt Q13569); experiment: Inhibition of TDG mismatch repair activity (fluorescent G·U double-stranded DNA probe T1-T2); assay type: biochemical; details: TDG 100 nM/L, preincubated with compound 37° C. 30 minutes; probe 30 nM; read-out: Inhibitory activity on TDG mismatch repair IC50
Description: 14.1 Experimental Determination of Compound's Inhibitory Rate on TDG Mismatch Repair Activity
(1) A double-stranded DNA probe T1-T2 containing uracil bases was synthesized. The nucleotide sequence of the T1 chain was: 5′-FAM-TAAUGTGAATGGAGCTGAAAT-biotin-3′; The nucleotide sequence of the T2 chain was 5′-ATTTCAGCTCCATTCACGTTA-3′. Using PCR annealing program, the T1 strand and T2 strand were complementary to form a double-stranded DNA probe T1-T2.
(2) The reaction system and steps for each well of a 96-well plate were as follows: a. TDG (100 nM/L) was mixed with different concentrations of compounds, and the mixture was incubated at 37° C. for 30 minutes. The composition of the reaction buffer was: 20 mM HEPES pH7.5, 100 mM NaCl, 0.2 mM EDTA, 2.5 mM MgCl2; b. The double-stranded DNA probe T1-T2 was added to the mixture to obtain a final volume of 100 μL, with a concentration of 30 nM, and the mixture was incubated at 25° C. for 30 min; c. 1 μL of streptavidin magnetic beads were added to the reaction solution and fully bound the biotin-labeled DNA for 1 hour; d. NaOH was added to the reaction solution to a final concentration of 200 mM, and the mixture was incubated at room temperature for 30 minutes; e. Under the action of a magnetic stand the streptavidin magnetic beads were adsorbed to the tube wall, the supernatant was transferred to a new 96-well plate, and placed in a Tecan microplate reader for fluorescence measurement. The parameter settings were: excitation wavelength 485 nm; emission wavelength 520 nm. A linear curve between fluorescence intensity and TDG concentration was constructed, R^2=0.9968, and the linear range was 0-50 nM/L;
According to the biological method described in this example, the selected compounds of the present invention were analyzed, and the results are shown in Table 1. Among them, “++” in Table 1 refers to the inhibitory activity for TDG mismatch repair with IC50≤5 μM; “+” refers to the inhibitory activity for TDG mismatch repair with IC50>5 μM.

TDG [2] = target: T1, TDG; experiment: TDG inhibitory activity of compounds in cells (caC-cmv-firefly luciferase reporter, HEK 293T TDG KO cells transfected with pCDNA4-TDG); assay type: cell-based; details: read-out: Inhibition rate on TDG activity
Procedure: Experimental Determination of TDG Inhibitory Activity of Compounds in Cells
The operation steps of this example are as follows:
(1) Preparation of Methylation Reporter Plasmid:
(a) SAM with a stock solution concentration of 32 mM was diluted with ultrapure water to 1600 μM;
(b) The reaction system was prepared according to the following ratio: 30 μl ultrapure water, 5 μl 10×NEBuffer 2, 5 μl diluted SAM, 1 μg pCpGL-CMV-firefly plasmid, 1 μl SssI methylase (4 U/μl); 50 μl in total, the reaction was carried out at 37° C. for 2 hours;
(c) The mixture was heated at 65° C. for 20 minutes. Then 0.2% SDS was added, the reaction was carried out at 80° C. for 10 min; and then 1 μl Proteinase K was added, the reaction was carried out at 50° C. for 1 h;
(d) The methylated plasmid was recovered with Dr. GenTLE® sedimentation aid (TAKARA).
(2) Preparation of 5fC/5caC pCpGL-CMV-Firefly Reporter Plasmid
(a) The following 10× reaction system was prepared:
(b) The reaction system was prepared according to the following ratio:
(c) The reaction was carried out at 37° C. for one hour;
(d) 24 μg Tet1 protein was added for the second time and the reaction was continued for one hour;
(e) SDS was added to a final concentration of 0.5%, 80° C., 10 minutes, then 1 μl Proteinase K was added, 55° C. overnight.
(f) The treated caC-cmv-firefly plasmid was recovered with Dr. GenTLE® sedimentation aid (TAKARA) and was quantified.
(3) Using the Luciferase Activity Assay Method to Detect the Inhibitory Rate of Small Molecule Compounds on Intracellular TDG Enzyme Activity
In a 96-well plate, the reaction system and operation flow of each well were as follows:
(a) 1 ng caC-cmv-firefly, Ing pCpGL-CMV-Relina and 150 ng pCDNA4-TDG or 150 ng pCDNA4-myc plasmid, were diluted to 75 ul Opti-MEM, mixed well and allowed to stand still for 5 minutes;
(b) 2 ul transfection reagent (Hieff Trans™ Liposomal transfection Reagent (0.5 ul/well, YEAEEN, Cat #40802)) was diluted in 100 ul Opti-MEM, mixed well and allowed to stand still for 5 minutes;
(c) 75 ul of (a) and (b) were mixed respectively, and allowed to stand still at room temperature for 20 minutes;
(d) HEK 293T TDG KO cells were digested with trypsin, the cells were collected and counted, and the suspension cell concentration was adjusted to 4×10^5/ml;
(e) 50 ul of the mixture (c) was added to each well, and at the same time 100 ul of the diluted cell suspension was added to the same well, and they were mixed well.
(f) After the cells adhering to the wall, different concentrations of small molecule compounds to be tested were added to each well.
(g) Incubation was performed in a 37° C. CO2 incubator for 72 hours. The supernatant was removed and the cells were quickly freezed at −80° C.
(h) Before detecting the luciferase activity, the cells to be tested were removed from −80° C. and allowed to stand still at room temperature for 30 minutes. Following the instructions of Dual-Glo® Luciferase Reagent (PROMEGA), the firefly fluorescence value and Renilla fluorescence value of each well were detected.
(i) The firefly fluorescence value was divided with the Renilla fluorescence value of each well; 96-well plate Z′ and experimental window was calculated by the ratio of transfected caC-cmv-firefly, pCpGL-CMV-Relina, pCDNA4-TDG plasmid mixture plus DMSO experimental group to transfected caC-cmv-firefly, pCpGL-CMV-Relina, pCDNA4-myc plasmid mixture plus DMSO experimental group, and the relative enzyme activity inhibition rate of each compound was calculated.
According to the biological method described in this example, the selected compounds of the present invention were analyzed, and the results are shown in Table 2. Among them, “+” in Table 2 refers to the compound's TDG inhibitory activity at a concentration of 10 μM≤25%; “++” refers to the compound's TDG inhibitory activity at a concentration of 10 μM>25%.

[3] = tested on: Lung cancer cell line Calu-1; experiment: Inhibition of the growth of Calu-1 cells (CellTiter-Glo, 72 hours); assay type: cell-based; details: Homo sapiens, 72 hours of culturing, read-out: Inhibitory activity on alu-1 cell growth IC50
Procedure: 14.2 Experimental Determination of Compound's Inhibitory Rate on the Growth of Calu-1 Cells
Lung cancer cell line Calu-1 was cultured in 90% McCoy's 5A medium (BI, 01-075-1ACS)+10% fetal bovine serum (Gibco, 10270106), placed in a CO2 incubator (37° C., 5% CO2, 95% air) for culturing. Calu-1 cells were digested with trypsin (Gibco, 12604-021) and seeded in a 384-well plate at a density of 500 cells per well. The medium was 50 μL and it was cultured overnight at 37° C. in an incubator. On the next day, different concentrations of test compounds were added, and the final concentration of DMSO was 0.1%. After 72 hours of culturing, the cells were taken out for test. The cell culture medium from the 384-well plate to be tested was removed, and fresh culture medium premixed with CTG was immediately added: the ratio of the culture medium to CellTiter-Glo® 2.0 reagent (Promega, G9243) was 2:1, 30 ul was added to each well. The plate was shaken at room temperature for 20 minutes, and then a multi-function plate reader (TECAN, Infinite 200 Pro) was used according to the reagent instructions to determine the cell survival.
According to the biological method described in this example, the selected compounds of the present invention were analyzed, and the results are shown in Table 1. Among them, “++” in Table 1 refers to the inhibitory activity on the growth of calu-1 cells with IC50≤5 μM; “+” refers to the inhibitory activity on the growth of calu-1 cells with IC50>5 μM.

T1 sequence (Q13569 whole entry): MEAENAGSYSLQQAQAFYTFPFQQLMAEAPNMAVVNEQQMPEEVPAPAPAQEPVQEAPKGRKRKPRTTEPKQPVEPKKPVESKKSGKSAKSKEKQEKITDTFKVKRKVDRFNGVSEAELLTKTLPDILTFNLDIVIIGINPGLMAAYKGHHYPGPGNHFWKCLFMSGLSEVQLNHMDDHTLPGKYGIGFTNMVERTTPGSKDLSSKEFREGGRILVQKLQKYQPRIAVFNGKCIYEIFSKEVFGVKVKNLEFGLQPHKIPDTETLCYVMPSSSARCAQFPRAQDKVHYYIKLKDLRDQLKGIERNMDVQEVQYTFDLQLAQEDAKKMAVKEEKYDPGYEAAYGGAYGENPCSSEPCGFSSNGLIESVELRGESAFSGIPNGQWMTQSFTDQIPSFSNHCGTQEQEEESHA

Row | Structure (SMILES) | IC50 (TDG [1]) | inhibition at 10 µM (TDG [2]) | IC50 [3]
1 | O=C(CCN1Cc2ccccc2C1)c1ccc2c(c1)OCO2 [Compound 35, 1-(benzo[d][1,3]dioxo1-5-yl)-3-(isoindolin-2-yl)propan-1-one] | ≤ 5 µM | < 25% | ≤ 5 µM
2 | O=C(CCN1Cc2ccccc2C1)c1ccc2c(c1)C(=O)CCO2 [Compound 36, 6-(3-(isoindolin-2-yl)propionyl)chroman-4-one] | ≤ 5 µM | < 25% | ≤ 5 µM
3 | O=C(CCN1Cc2ccccc2C1)c1ccc2c(c1)SCCO2 [Compound 37, 1-(2,3-dihydrobenzo[b][1,4]oxathion-6-yl)-3-(isoindolin-2-yl)propan-1-one] | > 5 µM | < 25% | > 5 µM
4 | COc1ccc(C(=O)CCN2Cc3ccccc3C2)cc1OC [Compound 38, 1-(3,4-dimethoxyphenyl)-3-(isoindolin-2-yl)propan-1-one] | > 5 µM | > 25% | > 5 µM
5 | O=C(CCN1Cc2ccccc2C1)c1ccc(O)c(O)c1 [Compound 39, 1-(3,4-dihydroxyphenyl)-3-(isoindolin-2-yl)propan-1-one] | > 5 µM | < 25% | > 5 µM
6 | O=C(CCN1Cc2ccc(-c3ccc(F)cc3)cc2C1)c1ccc2c(c1)OCCO2 [Compound 40, 1-(2,3-dihydrobenzo[b][1,4]dioxin-6-yl)-3-(5-(4-fluorophenyl)isoindolin-2-yl)propan-1-one] | > 5 µM | < 25% | > 5 µM
7 | O=C(CCN1CC2C=CC(c3ccncc3)=CC2C1)c1ccc2c(c1)OCCO2 (stereo not drawn) [Compound 41, 1-(2,3-dihydrobenzo[b][1,4]dioxin-6-yl)-3-(5-(pyridin-4-yl)-1,3,3a,7αtetrahydro-2H-isoindolepyridin-2-yl)propan-1-one] | > 5 µM | < 25% | > 5 µM
8 | C=CC(=O)c1ccc2c(c1)OCCO2 [Compound 42, 1-(2,3-dihydrobenzo[b][1,4]dioxin-6-yl)prop-2-en-1-one] | ≤ 5 µM | < 25% | ≤ 5 µM
9 | O=C(CCN1CCC(O)(c2ccc(F)cc2)C1)c1ccc2c(c1)OCCO2 (stereo not drawn) [Compound 43, 1-(2,3-dihydrobenzo[b][1,4]dioxin-6-yl)-3-(3-(4-fluorophenyl)-3-hydroxypyrrolidine-1-yl)propan-1-one] | ≤ 5 µM | < 25% | ≤ 5 µM
10 | O=C(CCN1CCC(O)(c2ccccc2)C1)c1ccc2c(c1)OCCO2 (stereo not drawn) [Compound 44, 1-(2,3-dihydrobenzo[b][1,4]dioxin-6-yl)-3-(3-hydroxy-3-phenylpyrrolidin-1-yl)propan-1-one] | > 5 µM | < 25% | ≤ 5 µM
11 | O=C(CCN1CCC(c2ccc(C(F)(F)F)cc2)C1)c1ccc2c(c1)OCCO2 (stereo not drawn) [Compound 45, 1-(2,3-dihydrobenzo[b][1,4]dioxin-6-yl)-3-(3-(4-(trifluoromethyl)phenyl)pyrrolidine-1-yl)propan-1-one] | > 5 µM | < 25% | ≤ 5 µM
12 | O=C(CCN1CCC(c2ccc([N+](=O)[O-])cc2)C1)c1ccc2c(c1)OCCO2 (stereo not drawn) [Compound 46, 1-(2,3-dihydrobenzo[b][1,4]dioxin-6-yl)-3-(3-(4-nitrophenyl)pyrrolidin-1-yl)propan-1-one] | ≤ 5 µM | < 25% | ≤ 5 µM
13 | O=C(CCN1CCC(c2ccc(Br)cc2)C1)c1ccc2c(c1)OCCO2 (stereo not drawn) [Compound 47, 3-(3-(4-bromophenyl)pyrrolidin-1-yl)-1-(2,3-dihydrobenzo[b][1,4]dioxin-6-yl)propan-1-one] | ≤ 5 µM | < 25% | ≤ 5 µM
14 | O=C(CCN1CCC(c2ccc(Cl)cc2)C1)c1ccc2c(c1)OCCO2 (stereo not drawn) [Compound 49, 3-(3-(4-chlorophenyl)pyrrolidin-1-yl)-1-(2,3-dihydrobenzo[b][1,4]dioxin-6-yl)propan-1-one] | ≤ 5 µM | < 25% | ≤ 5 µM
15 | N#Cc1ccc(C2CCN(CCC(=O)c3ccc4c(c3)OCCO4)C2)cc1 (stereo not drawn) [Compound 50, 4-(1-(3-(2,3-dihydrobenzo[b][1,4]dioxin-6-yl)-3-oxopropyl)pyrrolidin-3-yl)benzonitrile] | ≤ 5 µM | > 25% | ≤ 5 µM
16 | O=C(CCN1CCC(c2ccc(F)cc2O)C1)c1ccc2c(c1)OCCO2 (stereo not drawn) [Compound 51, 1-(2,3-dihydrobenzo[b][1,4]dioxin-6-yl)-3-(3-(4-fluoro-2-hydroxyphenyl)pyrrolidine-1-yl)propan-1-one] | > 5 µM | < 25% | > 5 µM
